Values joined by “and” are separate entries in the source; they are usually repeats but may differ in a detail not shown here. Identical values can stand only once. Starred links: 1 amine or outer side, 2 acyl side, 3 side chain; linkers in the order of their positions; H or OH if unused. Positions of bridges follow the written chain, without caps; N, C: chain ends. Non-standard residues stand in square brackets, D forms with d. Residues, ends and D or L forms follow the SMILES beside them. Chains are numbered I, II in the order given. No end group written: not given here. Actinocin(9to1) = Cc1c2oc3c(C)ccc(C(=O)[*:1])c3nc-2c(C(=O)[*:2])c(N)c1=O; NMeV = CN[C@H](C(=O)O)C(C)C; Sar = CNCC(=O)O
How the values were obtained:
[1] = test system: C. elegans; assay: Salt avoidance learning (taste associative learning, 6 h conditioning with NaCl without food); assay type: in vivo; settings: wild-type, blocker in conditioning plates, cycloheximide 300 μg/mL, actinomycin D 50 μg/mL, 100 mM NaCl without food
From the text: We next explored the behavior of sprr-2 mutants in a second established type of gustatory associative learning that depends on food availability and external salt concentration, generally referred to as taste associative learning. […] In contrast, they are averted by NaCl concentrations at which they were starved, a behavior that is called salt avoidance learning (Fig 5A, see Methods). To test taste associative learning of sprr-2 mutants, we fed or starved animals, respectively, for six hours on conditioning plates with 25 mM NaCl (low salt) or 100 mM NaCl (high salt). […] This salt avoidance learning defect could be rescued by reintroducing wild-type copies of sprr-2 under control of its endogenous promoter (Fig 5C). […]
(A) Overview of taste associative learning assays. […] The CI is calculated from the number of worms that migrated toward the lower and upper parts of the gradient. […]
Worms were washed off the cultivation plates with chemotaxis buffer (25 mM KH2PO4/K2HPO4 pH 6.6, 1 mM MgSO4, 1 mM CaCl2, 50 mM NaCl) and transferred to unseeded (salt avoidance learning) or seeded NGM conditioning plates with 100 mM NaCl. […] 30 to 150 worms were placed at the origin and allowed to move freely for 45 minutes after which the CI was calculated as N(higher)—N(lower) / N(all)—N(origin) where N(higher) or N(lower) is the number of animals within a 2-cm radius from the centre of the blocks. […]

[2] = test system: C. elegans; assay: Taste associative learning, 6 h conditioning with NaCl in the presence of food; assay type: in vivo; settings: for CI: food (+): 6 hours conditioning on NGM plates with 100 mM NaCl in the presence of bacterial food, with the drug, gradient chemotaxis assay, each row is one single assay (replicate), Figure S5A; for learning behavior after conditioning with 100 mM NaCl in the presence of food: wild-type, blocker in conditioning plates, cycloheximide 300 μg/mL, actinomycin D 50 μg/mL, n ≥ 8
Description: (A) Overview of taste associative learning assays. Synchronized young adult C. elegans are conditioned for six hours on NaCl-containing plates with or without bacterial food. Salt chemotaxis behavior of worms is then tested on NaCl concentration gradients. The CI is calculated from the number of worms that migrated toward the lower and upper parts of the gradient. Worms chemotax to the salt concentrations at which they were fed, but avoid salt concentrations at which they were starved. […] (C) Expression of sprr-2 under its promoter sequence [sprr-2p::sprr-2] rescues the salt avoidance learning defect of sprr-2 mutants. (D) Expression of mip-1 under control of its endogenous promoter sequence [mip-1p::mip-1] rescues the salt avoidance learning defect of mip-1 mutants. (E) A mip-1; sprr-2 double mutant has no additive learning defect. (F) Blocking translation (cycloheximide) or transcription (actinomycin D) during conditioning impairs salt avoidance learning in wild-type animals. (G) Salt avoidance learning of mutants for transcription factors and regulators linked to learning and memory. […] For (B-H), boxplots indicate 25th (lower boundary), 50th (line), and 75th (upper boundary) percentiles. Whiskers show minimum and maximum values. Individual CIs, blue dots. Outliers, black dots. Statistical comparisons by one-way ANOVA and Tukey post-hoc test (n ≥ 6). *p<0.05; **p<0.005; ***p<0.001; n.s., not significant.
Worms were washed off the cultivation plates with chemotaxis buffer (25 mM KH2PO4/K2HPO4 pH 6.6, 1 mM MgSO4, 1 mM CaCl2, 50 mM NaCl) and transferred to unseeded (salt avoidance learning) or seeded NGM conditioning plates with 100 mM NaCl. After 6 hours, animals were washed off and rinsed once with chemotaxis buffer before testing chemotaxis towards NaCl on salt concentration gradients. Salt concentration gradients consisted of a thin layer of 50 mM NaCl 2% agar solution in chemotaxis buffer (background agar, 10 mL was poured into 8.5 cm diameter plates). Additionally, 2% agar in chemotaxis buffer solutions supplemented without 0 mM (lower side) or with 150 mM NaCl (higher side) were prepared by pouring 10 mL agar solution into 35 mm diameter plates. Cylindrical blocks with the diameter of a 15 mL falcon tube were excised from either solution and applied on the background agar 3 cm off centre in opposite directions. Salt concentration gradients were subsequently placed at 20°C for 18 hours before removing the agar chunks prior to use. 30 to 150 worms were placed at the origin and allowed to move freely for 45 minutes after which the CI was calculated as N(higher)—N(lower) / N(all)—N(origin) where N(higher) or N(lower) is the number of animals within a 2-cm radius from the centre of the blocks. Animals within a 1-cm radius from the origin were excluded from the assay. […]

[3] = molecular target: T1, SPRR-2 (Caenorhabditis elegans, UniProt Q93704); assay: Ca2+ luminescence (aequorin) GPCR activation assay, CHO cells expressing SPRR-2; assay type: cell-based, C. elegans; settings: CHO cells expressing SPRR-2, Gα16 and aequorin; 0.1 nM to 100 μM; n ≥ 4; read-out: EC50 values (95% CI) for activation of SPRR-2
T1 construct: host or cells: CHO-WTA11 cells (CHO stably expressing aequorin and Galpha16), transiently transfected with sprr-2/pcDNA3.1
T1 sequence (Q93704 1-451): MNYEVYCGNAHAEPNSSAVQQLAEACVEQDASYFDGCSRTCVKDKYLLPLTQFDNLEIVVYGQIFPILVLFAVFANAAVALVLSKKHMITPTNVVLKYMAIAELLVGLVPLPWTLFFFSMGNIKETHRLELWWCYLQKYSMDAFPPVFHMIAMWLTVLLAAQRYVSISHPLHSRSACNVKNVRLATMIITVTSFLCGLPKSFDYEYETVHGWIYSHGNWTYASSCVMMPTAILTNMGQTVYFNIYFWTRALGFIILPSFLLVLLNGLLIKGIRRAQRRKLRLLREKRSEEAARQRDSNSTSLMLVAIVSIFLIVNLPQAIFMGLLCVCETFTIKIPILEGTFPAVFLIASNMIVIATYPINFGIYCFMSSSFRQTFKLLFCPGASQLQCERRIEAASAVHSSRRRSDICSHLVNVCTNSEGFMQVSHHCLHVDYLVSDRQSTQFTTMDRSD
From the text: Fig 2 MIP-1 neuropeptides activate the MIP receptor ortholog SPRR-2. (A) Ca^2+ luminescence assay for measuring GPCR activation. SPRR-2 is expressed in CHO cells that stably co-express the promiscuous Gα16 protein, which couples the receptor’s activation to the Ca^2+ pathway. Intracellular Ca^2+ levels are monitored by the luminescent Ca^2+ indicator aequorin. (B) Domain structure of the C. elegans NLP-38 peptide precursor, henceforward named MIP-1. Gene models predict that the mip-1 gene encodes two protein isoforms (Wormbase WS261), MIP-1A and MIP-1B, which yield five putative MIP-1 peptides. Predicted proprotein convertase sites are indicated in red. Residues belonging to the W-X5-8-Wamide motif, typical of protostomian MIPs, are indicated in brown. (C) MIP-1 peptides dose-dependently activate SPRR-2. Ca^2+responses of CHO cells expressing SPRR-2 are shown relative (%) to the highest value (100% activation) after normalization to the total Ca^2+ response. […] Error bars show SEM (n ≥ 4).
The C. elegans ortholog SPRR-2 of the insect MIP receptor is an orphan GPCR, meaning that its ligand(s) is unknown. To identify its ligand(s), we used a calcium (Ca^2+)-based reporter assay for GPCR activation wherein SPRR-2 is expressed in Chinese Hamster Ovary (CHO) cells (Fig 2A). We challenged these receptor-expressing cells with a synthetic library of ~350 C. elegans neuropeptides. […] These peptides (NLP-38-1 to 5) all have a C-terminal glycine residue (G) indicative of post-translational modification into an amide (-NH2) group in the mature peptides. In addition, these peptides display the C-terminal sequence W-X5-8-Wamide (Fig 2B), which is typical for MIP neuropeptides in other protostomian species. Because of its relationship to protostomian MIP neuropeptide precursors, we refer to the NLP-38 precursor from here onwards as "MIP-1".
The GPCR activation assay was performed as previously described. Briefly, CHO cells stably expressing the luminescent Ca^2+ indicator aequorin and the promiscuous Gα16 protein (CHO-WTA11 cells, PerkinElmer) were transiently transfected with sprr-2/pcDNA3.1, sprr-1/pcDNA3.1, sprr-3/pcDNA3.1, or empty pcDNA3.1 vector. […] After loading, the transfected cells were added at a density of 25,000 cells/well, and luminescence was measured for 30 s at a wavelength of 469 nm. After 30 s, 0.1% triton X-100 (Merck) was added to lyse the cells, resulting in a maximal Ca^2+ response that was measured for 10 s. […]
All behavioral experiments were performed at least in duplicate on at least two independent days. Total size number is indicated in figure legends by N. Statistical Significance was determined when p < 0.05 as indicated in the figure legends. […]

Row | Molecule | EC50 [3] | avoidance of high salt concentrations experienced during starvation (salt avoidance learning) [1] | CI [2] | learning behavior after conditioning with 100 mM NaCl in the presence of food [2]
1 | Cc1c2oc3c(C)ccc(C(=O)N[C@@H]4C(=O)N[C@H](C(C)C)C(=O)N5CCC[C@H]5C(=O)N(C)CC(=O)N(C)[C@@H](C(C)C)C(=O)O[C@@H]4C)c3nc-2c(C(=O)N[C@@H]2C(=O)N[C@H](C(C)C)C(=O)N3CCC[C@H]3C(=O)N(C)CC(=O)N(C)[C@@H](C(C)C)C(=O)O[C@@H]2C)c(N)c1=O [actinomycin D] (I: T[dV]P[Sar][NMeV] / II: T[dV]P[Sar][NMeV]; ester I:1-I:C, II:1-II:C; linker I:N-II:N via Actinocin(9to1)) |  | significantly weakened | 0.5595 and 0.6629 and 0.7488 and 0.5052 and 0.5581 and 0.5185 | does not impair
2 | C[C@@H]1C[C@@H]([C@H](O)CC2CC(=O)NC(=O)C2)C(=O)[C@@H](C)C1 [cycloheximide] |  | significantly weakened | 0.19 and 0.26 and 0.65 and 0.48 and 0.38 and 0.54 and 0.7415 and 0.7427 | does not impair
3 | TPQNWNKLNSLW-NH2 [MIP-1-2] | 14.2 nM |  |  | 
4 | VLGWNKAHGLW-NH2 [MIP-1-1] | 7.5 nM |  |  | 

Further lines, with some results ahead:

Row | EC50 [3] | Molecule | avoidance of high salt concentrations experienced during starvation (salt avoidance learning) [1] | CI [2] | learning behavior after conditioning with 100 mM NaCl in the presence of food [2]
5 | 8.32 nM | ASDDRVLGWNKAHGLW-NH2 [MIP-1-4] |  |  | 
6 | 16.1 nM | SPAQWQRANGLW-NH2 [MIP-1-3] |  |  | 
